Consider 1 molecule from patent US9067894B1, “Compound, composition, and method of activating GIRK potassium channel and use of same for treating conditions of interest” (Vanderbilt University, priority 2013, dated 2015).

Usually inhibition stands for the change of the read-out against control, counted positive when it falls.

In one experiment the target is T1, Adrenergic α1D (Homo sapiens, UniProt P25100).
T1 construct: Ricerca (contract assay)
Nature of the experiment: Radioligand displacement (Ricerca). In kind it is binding.

Another experiment concerns the target T2, GIRK1/2 (Homo sapiens, UniProt P48051+P48549).
T2 sequence (P48549 1-501): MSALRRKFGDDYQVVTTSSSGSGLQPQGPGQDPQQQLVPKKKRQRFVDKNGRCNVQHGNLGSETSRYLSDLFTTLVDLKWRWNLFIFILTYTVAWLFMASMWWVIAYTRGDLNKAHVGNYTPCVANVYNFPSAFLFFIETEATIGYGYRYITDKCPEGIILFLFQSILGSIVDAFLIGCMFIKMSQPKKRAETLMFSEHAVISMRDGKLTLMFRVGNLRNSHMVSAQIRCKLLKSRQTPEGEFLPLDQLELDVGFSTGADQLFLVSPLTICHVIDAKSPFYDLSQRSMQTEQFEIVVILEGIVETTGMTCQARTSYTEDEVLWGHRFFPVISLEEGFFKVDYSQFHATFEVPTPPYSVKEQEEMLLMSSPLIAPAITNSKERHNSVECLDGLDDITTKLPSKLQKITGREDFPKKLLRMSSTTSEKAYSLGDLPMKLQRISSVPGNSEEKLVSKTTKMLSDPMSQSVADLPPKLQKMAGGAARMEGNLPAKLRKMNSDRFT
T2 sequence (P48051 1-423): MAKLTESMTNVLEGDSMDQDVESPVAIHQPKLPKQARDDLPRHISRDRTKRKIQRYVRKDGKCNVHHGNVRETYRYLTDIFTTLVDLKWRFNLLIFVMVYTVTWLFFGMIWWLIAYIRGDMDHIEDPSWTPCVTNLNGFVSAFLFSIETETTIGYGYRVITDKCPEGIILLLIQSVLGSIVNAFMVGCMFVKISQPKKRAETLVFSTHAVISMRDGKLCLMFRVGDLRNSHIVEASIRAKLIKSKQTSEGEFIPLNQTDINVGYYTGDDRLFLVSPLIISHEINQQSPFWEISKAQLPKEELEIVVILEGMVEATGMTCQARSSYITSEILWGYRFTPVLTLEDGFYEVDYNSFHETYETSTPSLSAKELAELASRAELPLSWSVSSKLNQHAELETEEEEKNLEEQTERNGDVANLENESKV
Description: Thallium flux, pertussis toxin-treated cells co-expressing mGlu8 and GIRK1/2. In kind it is cell-based. The arrangement: host or cells: HEK-293. To be noted: 600 ng/ml pertussis toxin; VU0456810 10 μM, glutamate 100 μM. The source says:
Cell Line Construction and Cell Culture. HEK-293 cells co-expressing human GIRK1/2 and rat mGlu8 were generated as previously described (Niswender et al., 2008). A HEK-293 cell line (ATCC, Manassas, Va.) expressing human GIRK1 and human GIRK2 was constructed by transfecting HEK-293 cells with GIRK1 and GIRK2 (Origene, Rockville, Md.) cloned into the pBudCE4.1 vector (Life Technologies, Carlsbad, Calif.) using FuGene 6 (Promega, Madison, Wis.) transfection reagent. Unless otherwise noted, other ion channel-expressing cells were prepared by transfecting HEK-293 cells with individual or combinations of subunits: GIRK1, pCMV6-A-BSD; GIRK2, pCMV6-A-puro; GIRK3, pCMV6-A-hygro; GIRK4, pCMV6-A-AC; Kv7.4, pIRESneo3. The Kir2.1 and hERG-expressing cell lines were made by transfecting T-REx-293 cells (Life Technologies, Carlsbad, Calif.) with Kir2.1 and Kv11.1, respectively, cloned into pcDNA5TO. Monoclonal cell lines were produced by limiting-dilution cloning of antibiotic-resistant cells and functional selection using the thallium flux assay described below. Unless otherwise noted, cells were maintained in Minimal Essential Medium, Alpha Medium (Mediatech, Manassas, Va.) supplemented with 10% fetal bovine serum (Sigma-Aldrich, Saint Louis, Mo.) and GlutaGro (Mediatech, Manassas, Va.), referred to henceforth as cell culture medium. […]

T1 sequence (P25100 whole entry): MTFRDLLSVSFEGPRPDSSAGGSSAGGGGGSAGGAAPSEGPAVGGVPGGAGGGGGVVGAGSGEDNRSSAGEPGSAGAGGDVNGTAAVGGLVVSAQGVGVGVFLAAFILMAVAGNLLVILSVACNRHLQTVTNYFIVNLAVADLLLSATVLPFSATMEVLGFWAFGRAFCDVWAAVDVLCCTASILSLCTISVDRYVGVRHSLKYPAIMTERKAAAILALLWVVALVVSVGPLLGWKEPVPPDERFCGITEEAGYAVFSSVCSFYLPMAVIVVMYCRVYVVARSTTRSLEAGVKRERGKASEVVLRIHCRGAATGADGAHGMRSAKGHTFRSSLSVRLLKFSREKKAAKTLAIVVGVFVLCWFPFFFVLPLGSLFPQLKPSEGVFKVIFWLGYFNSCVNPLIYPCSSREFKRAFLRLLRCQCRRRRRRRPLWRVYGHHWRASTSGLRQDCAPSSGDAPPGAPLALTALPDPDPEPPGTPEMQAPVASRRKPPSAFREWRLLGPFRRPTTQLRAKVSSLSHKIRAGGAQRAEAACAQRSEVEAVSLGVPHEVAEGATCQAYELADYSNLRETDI

For the molecule `Cc1cc(NC(=O)Nc2ccc(F)c(F)c2)n(-c2ccccc2)n1` [VU0456810, 1-(3,4-difluorophenyl)-3-(3-methyl-1-phenyl-1H-pyrazol-5-yl)urea], the inhibition at 10 µM on Adrenergic α1D is -3%. Also, the “effect of pertussis toxin treatment on evoked thallium flux” value at GIRK1/2 is “unable to block”.
